Measured values from article PMC10269561, “Absence of Clinically Meaningful Drug-Drug Interactions with Rezafungin: Outcome of Investigations” (Microbiology Spectrum, 2023).
Where two headings read alike, the source gives them in different places.

Legend:
[1] = Study 2: phase 1 open-label crossover DDI study, plasma PK of oral immunosuppressant/oncology drugs alone vs with i.v. rezafungin; conditions: for Magnitude of decrease in Cmax with rezafungin vs drug alone / AUC0–t, geometric mean ratio (drug + rezafungin / drug alone) / AUC0–∞, geometric mean ratio (drug + rezafungin / drug alone) / Cmax, geometric mean ratio (drug + rezafungin / drug alone): mycophenolic acid analyte for mycophenolate mofetil; for AUC0–t, geometric mean ratio (drug + rezafungin / drug alone) / AUC0–∞, geometric mean ratio (drug + rezafungin / drug alone) / Cmax, geometric mean ratio (drug + rezafungin / drug alone): rezafungin 200 mg i.v., geometric LSM ratio x 100, ANOVA
Method: (§1) Both were phase 1, single-center, open-label, crossover inpatient studies that were conducted in the United States in healthy adults (study 1, aged 26 to 55 years; study 2, aged 21 to 59 years). The studies were compliant with the International Council for Harmonisation of Technical Requirements for Pharmaceuticals for Human Use E6 guideline for good clinical practice ([54]) and the Declaration of Helsinki. The study protocols were approved by the institutional review board associated with the study site, and all subjects provided written informed consent.
(§2) After screening, subjects were admitted to the CRU on day −17 (prior to the first rezafungin dose) and were discharged on day 22. Rezafungin was dosed via i.v. infusion over 1 h at 400 mg on day 1 and 200 mg on day 8 and day 15. The oral drugs to be tested for interactions were each administered twice on a schedule designed to allow washout between doses: once alone and once while receiving rezafungin (Fig. 4B). The total duration of treatment was approximately 84 days, which included 45 days of screening and 39 days of treatment in the CRU.
(§3) In study 1, predose PK blood samples were collected on each dosing day ≤60 min prior to the administration of the substrate drugs with or without rezafungin. Multiple blood samples were collected relative to each dose, with collection times ranging from 15 min to 168 h postdose, depending on the PK profile of each probe substrate drug (Table S5). For study 2, multiple blood samples were collected, and the timing of collection varied according to the PK profile of each coadministered drug from predose to 96 h postdose (Table S6). PK blood samples were collected for rezafungin at sample times ranging from predose to 168 h postdose.
(§4) For both studies, validated liquid chromatography-tandem mass spectrometry (LC-MS/MS) methods were used for PK assessments to analyze the concentrations of rezafungin and coadministered drugs. All plasma concentrations and actual blood sampling times were subjected to noncompartmental PK analysis. PK parameter calculations were performed using noncompartmental analysis (NCA) (Phoenix WinNonlin version 8.0 or higher). The PK parameters analyzed included Cmax; the time to reach the maximum observed plasma concentration (Tmax); AUC0–t (using the log-linear trapezoidal rule, where t was the last time point with a measurable concentration); AUC0–∞ (calculated as AUC0–t + Clast/λz); the AUC from 0 to 168 h (AUC0–168); the percentage of AUC0–∞ extrapolated (AUC%Extrap); the terminal elimination rate constant, determined by linear regression of the terminal linear segment of the log concentration-versus-time curve (λz); and the elimination half-life (t1/2), calculated as ln(2)/λz.
(§5) The primary analysis of the drug interaction effect on substrate drugs following rezafungin administration was assessed by the ratio of the geometric least-squares (LS) mean of each substrate drug administered with rezafungin to that without rezafungin. […] PK parameters were statistically analyzed using an analysis of variance (ANOVA) model. […] However, noncompliance with these no-effect boundaries was not considered evidence of a significant DDI. Statistical analyses were performed using SAS (version 9.4) and the mixed procedure. Adverse events were descriptively summarized.

[2] = Study 2 safety and tolerability (TEAEs); conditions: Study 2; one subject each
Method: as §2
In both studies, the safety population included all subjects who received any amount of the study drug. In study 1, the rezafungin safety population included all subjects who received any amount of rezafungin. Safety assessments included vital signs (temperature, heart rate, blood pressure, and respiratory rate), safety laboratory evaluations (hematology assessment, serum chemistry panel, and urinalysis), physical examinations (complete and symptom directed), and EKGs.
Microbiology Spectrum Supplementary materials
Abbreviations: TEAE = treatment-emergent adverse event.
N = number of subjects in the safety population; n = number of subjects in a sample.
Notes: Each TEAE was counted only once for each subject within each System Organ Class and Preferred Term.

[3] = clinical study, U.S. prescribing information; cited from earlier work
[4] = Method: as §1
After screening, subjects were admitted to the clinical research unit (CRU) prior to the first dose of rezafungin (from day −22) and were discharged from the CRU on day 22. Nine oral substrate drugs were administered as part of a cocktail containing two or more drugs once before and once after receiving rezafungin on a schedule designed to allow the washout of the drugs in the cocktail between doses and limit interactions with other drugs (Fig. 4A). […] A loading dose of rezafungin for injection (600 mg) was administered over 1 h on day 1, followed by two once-weekly 400-mg doses over 1 h on days 10 and 15. Due to a short delay in the availability of the investigation study drug, the second once-weekly dose of rezafungin and the second set of oral substrate drugs were administered on day 10 instead of day 8, although the time between doses remained sufficient for all originally planned PK samplings through 96 h postdose and for the adequate washout of the substrate drugs. The total duration of treatment was up to 89 days, including 45 days of screening and 44 days of treatment in the CRU.
as §3, §4, §5

[5] = Study 2, from geometric mean ratio
[6] = Study 2, healthy subjects (cohort 2), oral venetoclax 50 mg with i.v. rezafungin 200 mg (day 15), plasma, LC-MS/MS, NCA
[7] = Study 2, healthy subjects (cohort 2), oral venetoclax 50 mg without rezafungin, plasma, LC-MS/MS, NCA
[8] = Study 1, healthy subjects, oral rosuvastatin 5 mg with i.v. rezafungin 400 mg (day 10), plasma, LC-MS/MS, NCA
[9] = Study 1, healthy subjects, oral tacrolimus 5 mg or rosuvastatin 5 mg without rezafungin, plasma, LC-MS/MS, NCA
[10] = Study 1, from geometric mean ratio
[11] = Study 1, rezafungin 400 mg i.v. (day 10 or 15), geometric LSM ratio x 100, ANOVA
[12] = Study 2, healthy subjects, oral cyclosporine 200 mg, ibrutinib 280 mg or mycophenolate mofetil 500 mg (analyte mycophenolic acid) without rezafungin, plasma, LC-MS/MS, NCA
[13] = Study 2, healthy subjects, oral ibrutinib 280 mg (day 8) or mycophenolate mofetil 500 mg (day 15, cohort 1; analyte mycophenolic acid) with i.v. rezafungin 200 mg, plasma, LC-MS/MS, NCA

Question: For `C=CC(=O)N1CCC[C@@H](n2nc(-c3ccc(Oc4ccccc4)cc3)c3c(N)ncnc32)C1` [Ibrutinib], which “Magnitude of decrease in Cmax with rezafungin vs drug alone” value [1, 5] is on record?
Answer: ~17%

Question: For `CC1(C)CCC(CN2CCN(c3ccc(C(=O)NS(=O)(=O)c4ccc(NCC5CCOCC5)c([N+](=O)[O-])c4)c(Oc4cnc5[nH]ccc5c4)c3)CC2)=C(c2ccc(Cl)cc2)C1` [Venetoclax], which “AUC0–t, geometric LSM value, + rezafungin” value [1, 6] is on record?
Answer: 2,693.83 pg · h/mL

Question: What about the “AUC0–∞, geometric LSM value, + rezafungin” value [1, 6] of the same compound?
Answer: 2,781.57 pg · h/mL

Question: And the “AUC0–t, geometric LSM value, alone” value [1, 7]?
Answer: 3,004.70 pg · h/mL

Question: What about the “AUC0–∞, geometric LSM value, alone” value [1, 7] of the same compound?
Answer: 3,082.58 pg · h/mL

Question: What about the “Magnitude of decrease in AUC with rezafungin vs drug alone” value ([1]; Study 2, AUC0–t and AUC0–∞, from geometric mean ratio) of the same compound?
Answer: ~10%

Question: And the “Observation, Cmax (change with rezafungin relative to drug alone)” value ([1]; Study 2, class symbol)?
Answer: ↔ (no change (the ratio of the PK parameter value varied by up to ~10%, and the 90% CI was within 80 to 125%))

Question: What about the “AUC0–t, geometric mean ratio (drug + rezafungin / drug alone)” value ([1]; Study 2) of the same compound?
Answer: 89.65%

Question: And the “AUC0–∞, geometric mean ratio (drug + rezafungin / drug alone)” value ([1]; Study 2)?
Answer: 90.24%

Question: And the “Cmax, geometric mean ratio (drug + rezafungin / drug alone)” value ([1]; Study 2)?
Answer: 94.84%

Question: What about the “severe TEAE deemed by the investigator to be related to the drug” value [2] of the same compound?
Answer: abdominal pain

Question: For `COc1c(C)c2c(c(O)c1C/C=C(\C)CCC(=O)O)C(=O)OC2` [Mycophenolic acid], which “Magnitude of decrease in Cmax with rezafungin vs drug alone” value [1, 5] is on record?
Answer: 19%

Question: For Caspofungin, which “increase in AUC of caspofungin by cyclosporine” value [3] is on record?
Answer: approximately 35%

Question: What about the “reduction of trough concentrations of caspofungin by rifampicin” value [3] of the same compound?
Answer: 30%

Question: Which results are given for `CC(C)c1nc(N(C)S(C)(=O)=O)nc(-c2ccc(F)cc2)c1/C=C/[C@@H](O)C[C@@H](O)CC(=O)O` [Rosuvastatin]?
Answer: AUC0–t, geometric LSM value, + rezafungin [4, 8]: 31,027.38 pg · h/mL; AUC0–∞, geometric LSM value, + rezafungin [4, 8]: 32,386.11 pg · h/mL; Cmax, geometric LSM value, + rezafungin [4, 8]: 3,683.66 pg/mL; AUC0–t, geometric LSM value, alone [4, 9]: 26,949.43 pg · h/mL; AUC0–∞, geometric LSM value, alone [4, 9]: 28,521.34 pg · h/mL; Cmax, geometric LSM value, alone [4, 9]: 3,294.35 pg/mL; Magnitude of increase in AUC with rezafungin vs drug alone ([4]; Study 1, AUC0–t and AUC0–∞, from geometric mean ratio): ~15%; Magnitude of increase in AUC0–∞ with rezafungin vs drug alone [4, 10]: approximately 14%; Magnitude of increase in Cmax with rezafungin vs drug alone [4, 10]: ~12%; AUC0–t, geometric mean ratio (drug + rezafungin / drug alone) [4, 11]: 115.13%; AUC0–∞, geometric mean ratio (drug + rezafungin / drug alone) [4, 11]: 113.55%; Cmax, geometric mean ratio (drug + rezafungin / drug alone) [4, 11]: 111.82%

Question: With `COc1c(C)c2c(c(O)c1C/C=C(\C)CCC(=O)OCCN1CCOCC1)C(=O)OC2` [Mycophenolate mofetil] as the compound, how does the “AUC0–t, geometric LSM value, alone” value [1, 12] read?
Answer: 25,299.70 ng · h/mL

Question: What about the “AUC0–∞, geometric LSM value, alone” value [1, 12] of the same compound?
Answer: 27,954.20 ng · h/mL

Question: And the “Cmax, geometric LSM value, alone” value [1, 12]?
Answer: 9,541.20 ng/mL

Question: What about the “AUC0–t, geometric LSM value, + rezafungin” value [1, 13] of the same compound?
Answer: 25,054.90 ng · h/mL

Question: And the “AUC0–∞, geometric LSM value, + rezafungin” value [1, 13]?
Answer: 28,257.00 ng · h/mL

Question: What about the “Cmax, geometric LSM value, + rezafungin” value [1, 13] of the same compound?
Answer: 7,740.58 ng/mL

Question: What about the “Observation, AUC (change with rezafungin relative to drug alone)” value ([1]; Study 2, class symbol, AUC0–t and AUC0–∞ unless otherwise noted) of the same compound?
Answer: ↔ (no change (the ratio of the PK parameter value varied by up to ~10%, and the 90% CI was within 80 to 125%))

Question: What about the “AUC0–t, geometric mean ratio (drug + rezafungin / drug alone)” value ([1]; Study 2) of the same compound?
Answer: 99.03%

Question: And the “AUC0–∞, geometric mean ratio (drug + rezafungin / drug alone)” value ([1]; Study 2)?
Answer: 101.08%

Question: What about the “Cmax, geometric mean ratio (drug + rezafungin / drug alone)” value ([1]; Study 2) of the same compound?
Answer: 81.13%
